The results in this text go back to BindingDB's records for doi:10.1074/jbc.M114.564278 (University of Michigan, 2014).

Where a SMILES comes first, the peptide text is derived from it. [ ]: non-standard residue; d: D form. The star is where a group is joined. X1 = O=C(O)c1cc(NC(=S)*)ccc1-c1c2ccc(=O)cc-2oc2cc(O)ccc12; Ala(3-Me-diazirin-3-yl) = CC1(C[C@H](N)C(=O)O)N=N1; βAla = NCCC(=O)O

Experiment [1] deals with T1, UDP-3-O-(3-hydroxymyristoyl)glucosamine N-acyltransferase (Escherichia coli (strain K12), UniProt P21645).
T1 sequence (P21645 whole entry): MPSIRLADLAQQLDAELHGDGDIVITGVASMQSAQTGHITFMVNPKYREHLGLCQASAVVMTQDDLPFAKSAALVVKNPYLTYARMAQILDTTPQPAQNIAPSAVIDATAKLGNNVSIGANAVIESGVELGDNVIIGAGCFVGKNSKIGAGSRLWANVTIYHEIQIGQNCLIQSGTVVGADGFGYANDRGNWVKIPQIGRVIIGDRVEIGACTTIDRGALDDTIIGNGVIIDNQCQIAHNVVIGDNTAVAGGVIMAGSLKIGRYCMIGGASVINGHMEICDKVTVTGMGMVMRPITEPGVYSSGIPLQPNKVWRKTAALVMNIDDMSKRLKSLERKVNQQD
Put plainly: Fluorescence Polarization Assay. As to conditions: pH 8. On the procedure: (§1) The fluorescence polarization assay was performed as previously described [Jenkins et al., ACS Chem. Biol., 7:1170-1177]. In 384-well black Costar plates, LpxA or His6-LpxD were serially diluted while holding the fluorescent peptide at 20 nM in a final volume of 50 μl in 20mM HEPES pH 8.0 (0.01% DMSO). The wells were gently mixed and incubated at 30 °C in the dark for 15 min. Polarization was measured on a SpectraMax M5 plate reader in triplicate with readings taken at λex = 485 nm and λem = 525 nm.
A general note: Polarisation of emitted light reports the rotation of a fluorescent probe.

Experiment [2] has as its target T2, Acyl-[acyl-carrier-protein]--UDP-N-acetylglucosamine O-acyltransferase (Escherichia coli (strain K12), UniProt P0A722).
T2 sequence (P0A722 whole entry): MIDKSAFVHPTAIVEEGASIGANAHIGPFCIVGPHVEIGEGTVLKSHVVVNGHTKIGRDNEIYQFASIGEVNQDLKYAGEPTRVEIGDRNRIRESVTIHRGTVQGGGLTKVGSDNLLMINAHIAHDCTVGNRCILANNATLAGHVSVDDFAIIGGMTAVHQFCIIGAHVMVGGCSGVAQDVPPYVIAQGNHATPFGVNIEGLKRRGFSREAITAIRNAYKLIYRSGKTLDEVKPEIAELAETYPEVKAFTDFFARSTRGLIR
Description: Fluorescence Polarization Assay. As to conditions: pH 8. The protocol: as §1

Take `CSCC[C@H](NC(=O)[C@H](Cc1ccc(O)cc1)NC(=O)[C@H](CC(C)C)NC(=O)[C@H](CC(N)=O)NC(=O)[C@@H](NC(=O)CCNC(=S)Nc1ccc(-c2c3ccc(=O)cc-3oc3cc(O)ccc23)c(C(=O)O)c1)[C@@H](C)O)C(=O)N[C@@H](CC(C)C)C(=O)O` [FITC-(βa)TNLYML-COOH] ({X1-βAla}-TNLYML-OH): the Kd was 36000 nM in experiment [1] and 4.4 µM in experiment [2].

Compound H-TNLYML-NH2 [RJPXD33Δ6] came in with a Kd in experiment [2] of 23 µM.

As to `CSCC[C@H](NC(=O)[C@H](Cc1ccc(O)cc1)NC(=O)[C@H](CC(C)C)NC(=O)[C@H](CC(N)=O)NC(=O)[C@@H](NC(=O)CCNC(=S)Nc1ccc(-c2c3ccc(=O)cc-3oc3cc(O)ccc23)c(C(=O)O)c1)[C@@H](C)O)C(=O)N[C@@H](CC(C)C)C(=O)N1CCC[C@H]1C(=O)N[C@@H](CCCCN)C(=O)N[C@@H](Cc1c[nH]c2ccccc12)C(=O)N[C@@H](CC(=O)O)C(=O)N[C@@H](CC1(C)N=N1)C(=O)N1CCC[C@H]1C(N)=O` [FITC-(βa)TNLYMLPKWD(L-photoleucine)P-CONH2] ({X1-βAla}-TNLYMLPKWD[Ala(3-Me-diazirin-3-yl)]P-NH2), the Kd was 800 nM in experiment [1] and 22 µM in experiment [2].

`CC[C@H](C)[C@H](NC(=O)[C@H](CC(=O)O)NC(=O)[C@H](Cc1c[nH]c2ccccc12)NC(=O)[C@H](CCCCN)NC(=O)[C@@H]1CCCN1C(=O)[C@H](CC1(C)N=N1)NC(=O)[C@H](CCSC)NC(=O)[C@H](Cc1ccc(O)cc1)NC(=O)[C@H](CC(C)C)NC(=O)[C@H](CC(N)=O)NC(=O)[C@@H](NC(=O)CCNC(=S)Nc1ccc(-c2c3ccc(=O)cc-3oc3cc(O)ccc23)c(C(=O)O)c1)[C@@H](C)O)C(=O)N1CCC[C@H]1C(N)=O` [FITC-(βa)TNLYM(L-photoleucine)PKWDIP-CONH2] ({X1-βAla}-TNLYM[Ala(3-Me-diazirin-3-yl)]PKWDIP-NH2): the Kd turned out to be 1100 nM in experiment [1] and 32 µM in experiment [2].

For `CC[C@H](C)[C@H](NC(=O)[C@H](CC(=O)O)NC(=O)[C@H](Cc1c[nH]c2ccccc12)NC(=O)[C@H](CCCCN)NC(=O)[C@@H]1CCCN1C(=O)[C@H](CC(C)C)NC(=O)[C@H](CCSC)NC(=O)[C@H](Cc1ccc(O)cc1)NC(=O)[C@H](CC1(C)N=N1)NC(=O)[C@H](CC(N)=O)NC(=O)[C@@H](NC(=O)CCNC(=S)Nc1ccc(-c2c3ccc(=O)cc-3oc3cc(O)ccc23)c(C(=O)O)c1)[C@@H](C)O)C(=O)N1CCC[C@H]1C(N)=O` [FITC-(βa)TN(L-photoleucine)YMLPKWDIP-CONH2] ({X1-βAla}-TN[Ala(3-Me-diazirin-3-yl)]YMLPKWDIP-NH2), the Kd in experiment [1] turned out to be 2100 nM; in experiment [2], 50 µM.

With H-TNLYML-OH [RJPXD33Δ6-COOH], the affinity in experiment [2], expressed as Kd, was 2.1 µM.

On to `CSCC[C@H](NC(=O)[C@H](Cc1ccc(O)cc1)NC(=O)[C@H](CC(C)C)NC(=O)[C@H](CC(N)=O)NC(=O)[C@@H](NC(=O)CCNC(=S)Nc1ccc(-c2c3ccc(=O)cc-3oc3cc(O)ccc23)c(C(=O)O)c1)[C@@H](C)O)C(=O)N[C@@H](CC(C)C)C(N)=O` [FITC-(βa)TNLYML-CONH2] ({X1-βAla}-TNLYML-NH2), for which the figures for the Kd in experiment [1] and in experiment [2] were 22000 nM and 12 µM, respectively.

`CC[C@H](C)[C@H](NC(=O)[C@H](CC(=O)O)NC(=O)[C@H](Cc1c[nH]c2ccccc12)NC(=O)[C@H](CCCCN)NC(=O)[C@@H]1CCCN1C(=O)[C@H](CC(C)C)NC(=O)[C@H](CCSC)NC(=O)[C@H](Cc1ccc(O)cc1)NC(=O)[C@H](CC(C)C)NC(=O)[C@H](CC(N)=O)NC(=O)[C@@H](NC(=O)CCNC(=S)Nc1ccc(-c2c3ccc(=O)cc-3oc3cc(O)ccc23)c(C(=O)O)c1)[C@@H](C)O)C(=O)N1CCC[C@H]1C(N)=O` [FITC-(βa)TNLYMLPKWDIP-CONH2] ({X1-βAla}-TNLYMLPKWDIP-NH2): the Kd stood at 600 nM in experiment [1] and 17 µM in experiment [2].

One may read the Kd as the equilibrium constant for the complex coming apart.
